Test results reported in PubChem BioAssay AID226 (DTP/NCI, 2004).
“And” between values parts separate entries of the source, which are not always exact repeats. Identical values can stand only once. Toxic doses and inconclusive results are not listed. The calls were made as follows: active = survival T/C of 150% or more; inactive = T/C below 125% in these data.

System: B6C3F1 mice, intracerebral ependymoblastoma, median survival T/C
Test: NCI In Vivo Anticancer Drug Screen. Data for tumor model Ependymoblastoma (intracerebral) in B6C3F1 mice
Settings: endpoint: median survival time, higher = longer survival
Protocol: The antitumor activity of compounds was measured in mice bearing transplantable tumors. Survival or tumor size were measured and the results are expressed as the measurement made in the treated group (T) divided by the measurement made in the vehicle treated control group (C). The tumor model used in this assay is Ependymoblastoma (intracerebral) in B6C3F1 mice

[1] = dose: 8.0 mg/kg/injection, schedule: Q01DX005 (ip), vehicle: saline with Tween-80
[2] = dose: 16.0 mg/kg/injection, schedule: Q01DX005 (ip), vehicle: saline with Tween-80
[3] = dose: 32.0 mg/kg/injection, schedule: Q01DX005 (ip), vehicle: saline with Tween-80
[4] = dose: 64.0 mg/kg/injection, schedule: Q01DX005 (ip), vehicle: Klucel (hydroxypropylcellulose) (HPC)
[5] = dose: 64.0 mg/kg/injection, schedule: Q01DX005 (ip), vehicle: saline with Tween-80
[6] = dose: 128.0 mg/kg/injection, schedule: Q01DX005 (ip), vehicle: Klucel (hydroxypropylcellulose) (HPC)
[7] = dose: 256.0 mg/kg/injection, schedule: Q01DX005 (ip), vehicle: Klucel (hydroxypropylcellulose) (HPC)
[8] = dose: 8.0 mg/kg/injection, schedule: Q01DX005 (ip), vehicle: Klucel (hydroxypropylcellulose) (HPC)
[9] = dose: 16.0 mg/kg/injection, schedule: Q01DX005 (ip), vehicle: Klucel (hydroxypropylcellulose) (HPC)
[10] = dose: 32.0 mg/kg/injection, schedule: Q01DX005 (ip), vehicle: Klucel (hydroxypropylcellulose) (HPC)

Measured: T/C

Nc1ncnc2nc[nH]c12
inactive: dose: 4.0 mg/kg/injection, schedule: Q01DX005 (ip), vehicle: saline with Tween-80 106 % of control and 113 % of control | [1] 100 % of control and 114 % of control | [2] 107 % of control and 118 % of control | [3] 101 % of control and 102 % of control | [4] 108 % of control | [5] 100 % of control and 117 % of control | [6] 107 % of control | [7] 96 % of control

COc1ccc2cc1Oc1ccc(cc1)C[C@H]1c3cc(c(OC)cc3CCN1C)Oc1c(OC)c(OC)cc3c1[C@H](C2)N(C)CC3
inactive: dose: 50.0 mg/kg/injection, schedule: Q01DX005 (ip), vehicle: Klucel (hydroxypropylcellulose) (HPC) 100 % of control | dose: 100.0 mg/kg/injection, schedule: Q01DX005 (ip), vehicle: Klucel (hydroxypropylcellulose) (HPC) 88 % of control | dose: 200.0 mg/kg/injection, schedule: Q01DX005 (ip), vehicle: Klucel (hydroxypropylcellulose) (HPC) 108 % of control | dose: 400.0 mg/kg/injection, schedule: Q01DX005 (ip), vehicle: Klucel (hydroxypropylcellulose) (HPC) 91 % of control

C(COCCOCC1CO1)OCCOCC1CO1 (centres undefined)
inactive: dose: 25.0 mg/kg/injection, schedule: Q01DX005 (ip), vehicle: saline 100 % of control and 118 % of control | dose: 50.0 mg/kg/injection, schedule: Q01DX005 (ip), vehicle: saline 97 % of control and 121 % of control | dose: 100.0 mg/kg/injection, schedule: Q01DX005 (ip), vehicle: saline 97 % of control and 100 % of control | dose: 200.0 mg/kg/injection, schedule: Q01DX005 (ip), vehicle: saline 105 % of control

CCCCCCCCN(C)/N=N/c1nc[nH]c1C(N)=O
inactive: [1] 119 % of control | [2] 122 % of control and 123 % of control | [3] 113 % of control | [5] 111 % of control

COc1ccc2c(c1)CCC(c1ccccc1)=C2c1ccc(OCCN2CCCC2)cc1
inactive: [8] 106 % of control | dose: 12.0 mg/kg/injection, schedule: Q01DX005 (ip), vehicle: saline with Tween-80 108 % of control | [9] 106 % of control | dose: 24.0 mg/kg/injection, schedule: Q01DX005 (ip), vehicle: saline with Tween-80 110 % of control | [10] 110 % of control | dose: 48.0 mg/kg/injection, schedule: Q01DX005 (ip), vehicle: saline with Tween-80 104 % of control | [4] 101 % of control | dose: 96.0 mg/kg/injection, schedule: Q01DX005 (ip), vehicle: saline with Tween-80 107 % of control

O=C(NC1=C(N2CC2)C(=O)C(NC(=O)OCCO)=C(N2CC2)C1=O)OCCO
inactive: dose: 0.18 mg/kg/injection, schedule: Q01DX005 (ip), vehicle: saline 106 % of control | dose: 0.39 mg/kg/injection, schedule: Q01DX005 (ip), vehicle: saline 98 % of control | dose: 0.75 mg/kg/injection, schedule: Q01DX005 (ip), vehicle: saline 102 % of control | dose: 1.5 mg/kg/injection, schedule: Q01DX005 (ip), vehicle: saline 103 % of control and 108 % of control | dose: 3.0 mg/kg/injection, schedule: Q01DX005 (ip), vehicle: saline 96 % of control and 115 % of control | dose: 6.0 mg/kg/injection, schedule: Q01DX005 (ip), vehicle: saline 110 % of control and 113 % of control

COC(=O)[C@@]12OC[C@]34[C@H]([C@@H](O)[C@@H]1O)[C@@]1(C)CC(=O)C(O)=C(C)[C@@H]1C[C@H]3OC(=O)[C@H](OC(=O)/C=C(\C)C(C)C)[C@@H]24
inactive: dose: 0.03 mg/kg/injection, schedule: Q01DX005 (ip), vehicle: saline + alcohol 100 % of control and 101 % of control | dose: 0.06 mg/kg/injection, schedule: Q01DX005 (ip), vehicle: saline + alcohol 92 % of control and 97 % of control | dose: 0.12 mg/kg/injection, schedule: Q01DX005 (ip), vehicle: saline + alcohol 98 % of control and 101 % of control | dose: 0.12 mg/kg/injection, schedule: Q01DX005 (oral), vehicle: saline 100 % of control | dose: 0.12 mg/kg/injection, schedule: Q12HX006 (ip), vehicle: saline 109 % of control | dose: 0.25 mg/kg/injection, schedule: Q01DX005 (ip), vehicle: saline + alcohol 95 % of control and 96 % of control | dose: 0.25 mg/kg/injection, schedule: Q12HX002 (ip), vehicle: saline 107 % of control | dose: 0.25 mg/kg/injection, schedule: Q12HX006 (ip), vehicle: saline 116 % of control | dose: 0.5 mg/kg/injection, schedule: Q01DX001 (ip), vehicle: saline 111 % of control and 115 % of control and 116 % of control | dose: 0.5 mg/kg/injection, schedule: Q01DX005 (ip), vehicle: saline + alcohol 92 % of control and 95 % of control | dose: 0.5 mg/kg/injection, schedule: Q01DX005 (oral), vehicle: saline 101 % of control | dose: 0.5 mg/kg/injection, schedule: Q12HX002 (ip), vehicle: saline 107 % of control | dose: 0.5 mg/kg/injection, schedule: Q12HX006 (ip), vehicle: saline 116 % of control | dose: 1.0 mg/kg/injection, schedule: Q01DX001 (ip), vehicle: saline 101 % of control and 110 % of control and 111 % of control | dose: 1.0 mg/kg/injection, schedule: Q01DX005 (ip), vehicle: saline + alcohol 95 % of control and 100 % of control | dose: 1.0 mg/kg/injection, schedule: Q01DX005 (oral), vehicle: saline 100 % of control | dose: 1.0 mg/kg/injection, schedule: Q12HX002 (ip), vehicle: saline 102 % of control | dose: 1.0 mg/kg/injection, schedule: Q12HX006 (ip), vehicle: saline 119 % of control | dose: 2.0 mg/kg/injection, schedule: Q01DX001 (ip), vehicle: saline 119 % of control and 123 % of control | dose: 2.0 mg/kg/injection, schedule: Q01DX001 (oral), vehicle: saline 101 % of control and 109 % of control and 115 % of control | dose: 2.0 mg/kg/injection, schedule: Q01DX005 (ip), vehicle: saline + alcohol 98 % of control | dose: 2.0 mg/kg/injection, schedule: Q01DX005 (oral), vehicle: saline 105 % of control | dose: 2.0 mg/kg/injection, schedule: Q12HX002 (ip), vehicle: saline 110 % of control | dose: 4.0 mg/kg/injection, schedule: Q01DX001 (ip), vehicle: saline 115 % of control | dose: 4.0 mg/kg/injection, schedule: Q01DX001 (oral), vehicle: saline 95 % of control and 101 % of control and 123 % of control | dose: 4.0 mg/kg/injection, schedule: Q12HX002 (ip), vehicle: saline 101 % of control | dose: 8.0 mg/kg/injection, schedule: Q01DX001 (oral), vehicle: saline 95 % of control and 96 % of control and 108 % of control | dose: 16.0 mg/kg/injection, schedule: Q01DX001 (oral), vehicle: saline 105 % of control

COc1cccc2c1C(=O)c1c(O)c3c(c(O)c1C2=O)C[C@@](O)(/C(C)=N/NC(=O)c1ccccc1)C[C@@H]3OC1CC(N)C(O)C(C)O1 (some centres undefined)
inactive: dose: 2.0 mg/kg/injection, schedule: Q01DX005 (ip), vehicle: saline 97 % of control | dose: 4.0 mg/kg/injection, schedule: Q01DX005 (ip), vehicle: saline 95 % of control | dose: 8.0 mg/kg/injection, schedule: Q01DX005 (ip), vehicle: saline 98 % of control

CC(C)(N)C(=O)O
inactive: dose: 12.5 mg/kg/injection, schedule: Q01DX005 (ip), vehicle: saline with Tween-80 103 % of control | dose: 25.0 mg/kg/injection, schedule: Q01DX005 (ip), vehicle: saline with Tween-80 114 % of control | dose: 50.0 mg/kg/injection, schedule: Q01DX005 (ip), vehicle: saline with Tween-80 114 % of control | dose: 100.0 mg/kg/injection, schedule: Q01DX005 (ip), vehicle: saline with Tween-80 105 % of control | dose: 200.0 mg/kg/injection, schedule: Q01DX005 (ip), vehicle: saline with Tween-80 97 % of control | dose: 400.0 mg/kg/injection, schedule: Q01DX005 (ip), vehicle: saline with Tween-80 95 % of control | dose: 800.0 mg/kg/injection, schedule: Q01DX005 (ip), vehicle: saline with Tween-80 98 % of control | dose: 1600.0 mg/kg/injection, schedule: Q01DX005 (ip), vehicle: saline with Tween-80 116 % of control

CC(=O)O[C@]1(C(C)=O)CC[C@H]2[C@@H]3C[C@H](C)C4=CC(=O)CC[C@]4(C)[C@H]3CC[C@@]21C
inactive: [8] 96 % of control and 104 % of control | [9] 101 % of control and 122 % of control | [10] 101 % of control and 112 % of control | [4] 92 % of control and 97 % of control | [6] 95 % of control and 98 % of control | [7] 94 % of control and 97 % of control
